Tests used:
[1] = system: homologous passive cutaneous anaphylaxis (antigen-antibody reaction); experiment: Homologous Passive Cutaneous Anaphylaxis in Rats; type: in vivo, rat (Wistar male); conditions: 200 mg/kg orally 2 hours prior to the injection of antigen; for inhibition at 200 mg/kg: Rattus norvegicus, po
Description: Wistar male rats weighing 120-150 g were used in this experiment. […]. Normal rats were sensitized passively with dilution of the antibody by means of intradermal injection. After 48 hours of the sensitization, the mixture of antigen (EA) and evens blue was injected intravenously. The animals were killed by a blow on the head 30 minutes after the injection, and then the blue spot resulted from the antigen-antibody reaction was measured photometrically.
A given test compound dissolved in 1 % NaHCO3 solution was administrated in a dose of 200 mg/kg orally 2 hours prior to the injection of antigen, while only the vehicle solution was administered to the control group.
The efficacy of the test compounds to inhibit the homologous passive cutaneous anaphlaxis was compared with the value (%) calculated using the following formula: [formula] wherein A stands for the amount of leaked dye in control group and B for the amount of leaked dye in the group administered with a given test compound.

[2] = system: mast cells; conditions: known art; cited from earlier work
[3] = Acute Toxicity (LD50) in mice; type: in vivo; conditions: mouse, in vivo, po, mortality on the 8th day
Description: The median lethal dose (LD50) of the new aromatic carboxylic acid amide derivatives of this invention were determined in dd-stain male and female mice (6 weeks old) by oral administration and in Wistar strain male and female rats (7 weeks old) by oral and intraperitoneal administration. Each animal selected for the experiment was maintained in an air conditioned room at a temperature of 22° ± 1° C and a relative humidity of 55 ± 5% during the full course of the experiment. All animals were fed compressed pellets (CE-2 type produced by Japan CLEA Co.) and water was available ad libitum by bottle. Five groups of ten animals for each administration route were used.
Since these compounds were isoluble in water, they were suspended in a 0.5% aqueous solution of carboxymethylcellulose at each dosage level. The administrative volume of each agent to 10 g body weight mouse was 0.2 ml for oral administration, while that to 100g body weight of rat was 0.5 ml for intraperitoneal and oral administrations.
The LD50 values were calculated from the mortality on the 8th day by the Litchfield-Wilcoxon's method.

[4] = system: sensitized mesenteric mast cells; experiment: Effect on the Disruption of the Sensitized Mast Cells; type: cell-based, rat; conditions: 10^-5 g/ml, 5 minutes prior to the treatment of antigen
Description: Mesenteric mast cells isolated from normal rats were sensitized passively by means of incubation with rat reaginic antibody at 37° C. After termination of the incubation, the specific antigen (DNP-Ascaris) was added to the incubation medium, then these mast cells in mesentery were fixed with formalin and stained with 0.1 % toluidine blue (in acetic acid buffer; pH: 4.6). The number of mast cells disrupted as a consequence of the antigen-antibody reaction were counted under a microscope. The number of the mast cells disrupted were also counted without the addition of the specific antigen.
A given test compound dissolved in 1 % NaHCO3 solution was added to the incubation medium at a concentration of 10^-5 g/ml, 5 minutes prior to the treatment of antigen, while only the vehicle was added to the control group.
The efficacy of the test compounds to inhibit the mast cell disruption was compared with the value (%) calculated using the following formula: [formula] wherein P stands for the percentage of disrupted mast cells in the control group, Q for the percentage of mast cells disrupted spontaneously and R for the percentage of disrupted mast cells in the group treated with a given test compound.

[5] = system: antiallergic action, oral administration to mammalia; experiment: Antiallergic action (general statements); type: in vivo; conditions: general statement

Compound `O=C(C=Cc1ccccc1)Nc1cccc(C(=O)O)c1` [3-(cinnamoylamino)-benzoic acid, reference compound] has an inhibition at 200 mg/kg [1] of 10%.

With `COc1cccc(C=CC(=O)Nc2cccc(C(=O)O)c2)c1OC` [compound 60, 3-(2',3'-dimethoxycinnamoylamino)-benzoic acid] the inhibition at 200 mg/kg [1] was 41.1%.

Compound `COc1cc(C=CC(=O)Nc2ccccc2C(=O)O)ccc1OCC(=O)O` [N-(3'-methoxy-4'-carboxylmethoxycinnamoyl)-anthranilic acid, reference compound] has an inhibition at 200 mg/kg [1] of 0%.

Compound `COc1cc(OC)c(OC)cc1C=CC(=O)Nc1ccccc1C(=O)O` [compound 52, N-(2',4',5'-trimethoxycinnamoyl)-anthranilic acid] has an inhibition at 200 mg/kg [1] of 56.8%.

For `OCC(O)COc1ccc(Cl)cc1` (stereo not drawn) [Chlorphenesin, reference compound], the “inhibition of mast cell disruption (in words)” value [2] is listed as “inhibitor of mast cell disruption” and the inhibition at 200 mg/kg [1] is listed as 36.7%.

`O=C(C=Cc1cccc(F)c1)Nc1ccccc1C(=O)O` [compound 29, N-(3'-fluorocinnamoyl)-anthranilic acid] gave an inhibition at 200 mg/kg [1] of 47.5% and an LD50 at 192 h [3] of 551 mg/kg.

In the case of `COc1ccc(C(C)=CC(=O)Nc2ccccc2C(=O)O)cc1OC` [N-(3',4'-dimethoxy-β-methylcinnamoyl)-anthranilic acid], the inhibition at 200 mg/kg [1] is reported as 66.2% and the “Inhibition percentage (mast cell disruption)” value (shortened to “Inhibition percentage”) [4] is reported as 45%.

`O=C(C=Cc1cccc(Cl)c1)Nc1ccccc1C(=O)O` [N-(3'-chlorocinnamoyl)-anthranilic acid] gave an LD50 at 192 h [3] of 700 mg/kg.

Compound `COc1cccc(C=CC(=O)Nc2ccc(C(=O)O)cc2)c1O` [compound 6, 4-(2'-hydroxy-3'-methoxycinnamoylamino)-benzoic acid] has an inhibition at 200 mg/kg [1] of 33.5%.

Work on `O=C(C=Cc1ccc(F)cc1)Nc1ccccc1C(=O)O` [compound 28, N-(4'-fluorocinnamoyl)-anthranilic acid] yielded an LD50 at 192 h [3] of 481 mg/kg.

Work on `O=C(C=Cc1ccccc1)Nc1ccc(C(=O)O)cc1` [4-(cinnamoylamino)-benzoic acid, reference compound] yielded an inhibition at 200 mg/kg [1] of 7%.

In the case of “Methylenedioxycinnamoylaminobenzoic acid”, the “antiallergic action / pharmacological activity (in words)” value [5] is reported as “strong antiallergic action”.

With `CCCOc1ccc(C=CC(=O)Nc2ccccc2C(=O)O)cc1OC` [compound 54, N-(3'-methoxy-4'-n-propoxycinnamoyl)-anthranilic acid] the inhibition at 200 mg/kg [1] was 52.2% and the “Inhibition percentage” value [4] was 37%.

With N-(4'-bromocinnamoylamino)-benzoic acid the “Inhibition (%)” value [1] was 32.3%.

`O=C(C=Cc1ccc(Cl)cc1)Nc1ccccc1C(=O)O` [compound 20, N-(4'-chlorocinnamoyl)-anthranilic acid] showed an inhibition at 200 mg/kg [1] of 69.4% and an LD50 at 192 h [3] of 551 mg/kg.

`COc1cc(C=CC(=O)Nc2ccccc2C(=O)O)ccc1OCC(O)CO` (stereo not drawn) [N-[3'-methoxy-4'-(2,3-dihydroxypropoxy)-cinnamoyl]-anthranilic acid, reference compound] showed an inhibition at 200 mg/kg [1] of 9%.

With `COc1cc(C=CC(=O)Nc2ccccc2C(=O)O)ccc1OC(C)C` [compound 56, N-(3'-methoxy-4'-isopropoxycinnamoyl)-anthranilic acid] the inhibition at 200 mg/kg [1] was 47.1%.

`COc1ccc(CCC(=O)Nc2ccccc2C(=O)O)cc1OC` [compound 67, N-(3',4'-dimethoxylhydrocinnamoyl)-anthranilic acid] gave an inhibition at 200 mg/kg [1] of 55.4%.

With `Cc1ccc(C=CC(=O)Nc2ccccc2C(=O)O)cc1` [compound 42, N-(4'-methylcinnamoyl)-anthracilic acid] the inhibition at 200 mg/kg [1] was 54%.

For “cinnamoylaminobenzoic acid [reference compound]”, the “antiallergic action / pharmacological activity (in words)” value [5] was “only very weak antiallergic effect”.

For `O=C(C=Cc1ccccc1Cl)Nc1ccccc1C(=O)O` [compound 22, N-(2'-chlorocinnamoyl)-anthranilic acid], the inhibition at 200 mg/kg [1] was 60.2% and the LD50 at 192 h [3] was 343 mg/kg.

With `COc1cccc(C=CC(=O)Nc2ccccc2C(=O)O)c1OC` [compound 31, N-(2',3'-dimethoxycinnamoyl)-anthranilic acid] the inhibition at 200 mg/kg [1] was 56.8%.

`O=C(C=Cc1ccc(O)cc1)Nc1ccccc1C(=O)O` [compound 1, N-(4'-hydroxycinnamoyl)-anthranilic acid] gave an inhibition at 200 mg/kg [1] of 36.7%.

In the case of `COc1cccc(C=CC(=O)Nc2cccc(C(=O)O)c2)c1` [compound 15, 3-(3'-methoxycinnamoylamino)-benzoic acid], the inhibition at 200 mg/kg [1] is reported as 45% and the “Inhibition percentage” value [4] is reported as 18%.

Compound `O=C(C=Cc1ccccc1F)Nc1ccccc1C(=O)O` [compound 30, N-(2'-fluorocinnamoyl)-anthranilic acid] has an LD50 at 192 h [3] of 321 mg/kg.

Work on `O=C(C=Cc1ccccc1)Nc1ccccc1C(=O)O` [N-cinnamoyl-anthranilic acid, reference compound] yielded an inhibition at 200 mg/kg [1] of 16.7%.
